The values that follow come from US20040010036A1, “N,N, -Substituted s-Aryl-Isothioureas, N,N,N, -Substituted s-Aryl-Isothioureas and combinatorial libraries thereof” (priority 2002, published 2004).

The test system of the test is Streptococcus pyogenes (ATCC# 97-03 14289). In words: Anti-microbial screen (percent inhibition of growth, OD 570 nm). In kind it is cell-based. The settings on record: Conc 0.1776 mg ml. Here is the method:
Streptococcus pyogenes (ATCC# 97-03 14289) was grown in Todd Hewitt Broth (THB) (Difco Laboratories #0492-17-6) overnight until reaching an optical density of (OD=0.636@570 nm) by reading 0.1 ml in a 96 well microtiter plate in a Molecular Devices Thermomax. This preparation was kept frozen as stocks in 30% v/v glycerol in 1.5 ml aliquots at […] until use. Prior to experiments, 6 ml aliquots were thawed and diluted into 50 ml 2×THB. 60 ul of this dilution was added to 92 wells of microtiter plate. To three wells THB (200 ul) was added to serve as a blank and a sterility control. Test compounds in DMSO and appropriate concentrations of DMSO were added to Growth/Solvent Controls at 0 time. Plates were read at 0 time at 570 nm in the Molecular Devices plate reader to obtain compounds correction factors for insoluble or colored compounds. Plates were read again at 4 hours.
Percent inhibition is calculated with the following formula:
Color correct=O.D. 0 hr - Blank 0 hr)-(Solvent Control Ohr - Blank 0 hr) [formula]

The mark [1] stands for this setting: Streptococcus pyogenes, Assay Spy4H, plates read at 570 nm at 0 time and at 4 hours.
The mark [2] stands for this setting: Spy4H: Streptococcus pyogenes, read at 4 hours, OD 570 nm.

Molecules are shown by their SMILES.

By inhibition of growth is commonly meant the relative decrease from the control value, in per cent. A lower inhibition of growth goes with little suppression. In the case of `COc1cccc(S/C(=N\Cc2ccc(F)cc2)N(Cc2ccc(C)cc2)Cc2ccc(O)cc2)c1` [Cmpd 124], under setting [1], the inhibition of growth at 177.6 µg/mL stood at 55.6%.

`COc1cccc(S/C(=N/c2ccc(C(F)(F)F)cc2)N(Cc2ccc(C)cc2)Cc2ccc(O)cc2)c1` [Cmpd 127] yielded an inhibition of growth at 177.6 µg/mL under setting [2] of 61.5%.

In turn, `COc1cccc(S/C(=N\c2cc(Cl)cc(Cl)c2)N(Cc2ccc(C)cc2)Cc2ccc(O)cc2)c1` [Cmpd 133] returned an inhibition of growth at 177.6 µg/mL under setting [2] of 94.3%.

Regarding `COc1cccc(S/C(=N/c2ccc(Cl)c([N+](=O)[O-])c2)N(Cc2ccc(C)cc2)Cc2ccc(O)cc2)c1` [Cmpd 143], under setting [2], the inhibition of growth at 177.6 µg/mL worked out at 93.6%.

On to `COc1cccc(S/C(=N/c2ccc(Cl)c(C(F)(F)F)c2)N(Cc2ccc(C)cc2)Cc2ccc(O)cc2)c1` [Cmpd 153], for which the inhibition of growth at 177.6 µg/mL under setting [2] came to 70.6%.

`Cc1ccc(S/C(=N\c2ccc(C(F)(F)F)cc2)N(Cc2ccc(O)cc2)Cc2cccc(Cl)c2)cc1` [Cmpd 167] displayed an inhibition of growth at 177.6 µg/mL under setting [2] of 71%.

For the molecule `Cc1ccc(S/C(=N\c2ccc(Cl)c(Cl)c2)N(Cc2ccc(O)cc2)Cc2cccc(Cl)c2)cc1` [Cmpd 168], the inhibition of growth at 177.6 µg/mL under setting [1] was determined as 49.5%.

In the case of `Cc1ccc(S/C(=N\c2cc(Cl)cc(Cl)c2)N(Cc2ccc(O)cc2)Cc2cccc(Cl)c2)cc1` [Cmpd 173], under setting [2], the inhibition of growth at 177.6 µg/mL was 70.7%.

Under setting [2], `Cc1ccc(S/C(=N\c2ccc(Cl)c([N+](=O)[O-])c2)N(Cc2ccc(O)cc2)Cc2cccc(Cl)c2)cc1` [Cmpd 183] gave an inhibition of growth at 177.6 µg/mL of 64.8%.

Take `Cc1ccc(S/C(=N\c2ccccc2[N+](=O)[O-])N(Cc2ccc(O)cc2)Cc2cccc(Cl)c2)cc1` [Cmpd 186]: the inhibition of growth at 177.6 µg/mL under setting [1] worked out at 56.5%.

Take `COc1ccc(C)cc1/N=C(\Sc1ccc(C)cc1)N(Cc1ccc(O)cc1)Cc1cccc(Cl)c1` [Cmpd 189]: the inhibition of growth at 177.6 µg/mL under setting [2] stood at 61.8%.

`Cc1ccc(CN(Cc2cccc(O)c2)/C(=N/Cc2cccc(C)c2)Sc2ccc(C)cc2C)cc1` [Cmpd 202] displayed an inhibition of growth at 177.6 µg/mL under setting [1] of 51.9%.

`Cc1ccc(CN(Cc2cccc(O)c2)/C(=N/Cc2ccc(F)cc2)Sc2ccc(C)cc2C)cc1` [Cmpd 204]: the inhibition of growth at 177.6 µg/mL under setting [2] worked out at 69.1%.

The molecule `Cc1ccc(CN(Cc2cccc(O)c2)/C(=N\c2ccc(C(F)(F)F)cc2)Sc2ccc(C)cc2C)cc1` [Cmpd 207] gave an inhibition of growth at 177.6 µg/mL under setting [2] of 95.9%.

As for `Cc1ccc(CN(Cc2cccc(O)c2)/C(=N/c2cc(Cl)cc(Cl)c2)Sc2ccc(C)cc2C)cc1` [Cmpd 213], the inhibition of growth at 177.6 µg/mL under setting [1] worked out at 57.1%.

The molecule `Cc1ccc(CN(Cc2cccc(O)c2)/C(=N/c2ccccc2[N+](=O)[O-])Sc2ccc(C)cc2C)cc1` [Cmpd 226] showed an inhibition of growth at 177.6 µg/mL under setting [2] of 74.4%.

Molecule `COc1ccc(C)cc1/N=C(\Sc1ccc(C)cc1C)N(Cc1ccc(C)cc1)Cc1cccc(O)c1` [Cmpd 229] came in with an inhibition of growth at 177.6 µg/mL under setting [2] of 65.8%.

As for `Cc1ccc(CN(Cc2cccc(O)c2)/C(=N\c2ccc(Cl)c(C(F)(F)F)c2)Sc2ccc(C)cc2C)cc1` [Cmpd 233], at 177.6 µg/mL the inhibition of growth under setting [2] was 60.5%.

Turning to `Cc1ccc(S/C(=N/Cc2ccccc2)N(Cc2ccc(O)cc2)CC(C)C)cc1` [Cmpd 241], 177.6 µg/mL produced 49.8% inhibition of growth under setting [1].

On to `Cc1ccc(S/C(=N/Cc2ccc(F)cc2)N(Cc2ccc(O)cc2)CC(C)C)cc1` [Cmpd 244], for which the inhibition of growth at 177.6 µg/mL under setting [1] amounted to 51.6%.

In the case of `Cc1ccc(S/C(=N/c2ccc(C(F)(F)F)cc2)N(Cc2ccc(O)cc2)CC(C)C)cc1` [Cmpd 247], testing at 177.6 µg/mL under setting [2] gave an inhibition of growth of 60.3%.

`Cc1ccc(S/C(=N/c2ccc(Cl)c(Cl)c2)N(Cc2ccc(O)cc2)CC(C)C)cc1` [Cmpd 248] showed an inhibition of growth at 177.6 µg/mL under setting [1] of 55%.

`Cc1ccc(S/C(=N/c2cc(Cl)cc(Cl)c2)N(Cc2ccc(O)cc2)CC(C)C)cc1` [Cmpd 253] displayed an inhibition of growth at 177.6 µg/mL under setting [2] of 66.5%.

As to `Cc1ccc(S/C(=N/c2ccc(F)c(Cl)c2)N(Cc2ccc(O)cc2)CC(C)C)cc1` [Cmpd 254], the inhibition of growth at 177.6 µg/mL under setting [1] stood at 49.2%.

In the case of `Cc1ccc(S/C(=N/c2ccc(Cl)c([N+](=O)[O-])c2)N(Cc2ccc(O)cc2)CC(C)C)cc1` [Cmpd 263], the inhibition of growth at 177.6 µg/mL under setting [1] stood at 53.8%.

In the case of `Cc1ccc(S/C(=N/c2ccc(Cl)c(C(F)(F)F)c2)N(Cc2ccc(O)cc2)CC(C)C)cc1` [Cmpd 273], 177.6 µg/mL produced 64.6% inhibition of growth under setting [2].

Under setting [2], `Cc1ccc(S/C(=N/c2ccc(F)c(F)c2)N(Cc2ccc(O)cc2)CC(C)C)cc1` [Cmpd 276] showed an inhibition of growth at 177.6 µg/mL of 62.1%.

`Cc1cccc(C/N=C(\Sc2ccc(C)cc2C)N(CCc2ccc(Cl)cc2)Cc2cccc(O)c2)c1` [Cmpd 282] came in with an inhibition of growth at 177.6 µg/mL under setting [1] of 49.8%.

Consider `Cc1ccc(S/C(=N\Cc2ccc(F)cc2)N(CCc2ccc(Cl)cc2)Cc2cccc(O)c2)c(C)c1` [Cmpd 284], for which the inhibition of growth at 177.6 µg/mL under setting [2] stood at 64%.

As for `Cc1ccc(S/C(=N\c2ccc(C(F)(F)F)cc2)N(CCc2ccc(Cl)cc2)Cc2cccc(O)c2)c(C)c1` [Cmpd 287], 177.6 µg/mL produced 97.7% inhibition of growth under setting [2].

As for `Cc1ccc(S/C(=N\c2ccc(F)c(Cl)c2)N(CCc2ccc(Cl)cc2)Cc2cccc(O)c2)c(C)c1` [Cmpd 294], under setting [1], the inhibition of growth at 177.6 µg/mL worked out at 56.6%.

For the molecule `Cc1ccc(S/C(=N/c2ccc(Cl)c(C(F)(F)F)c2)N(CCc2ccc(Cl)cc2)Cc2cccc(O)c2)c(C)c1` [Cmpd 313], under setting [1], the inhibition of growth at 177.6 µg/mL was 50.4%.

As to `COc1cccc(CN(Cc2cccc(O)c2)/C(=N/c2ccc(C(F)(F)F)cc2)Sc2cccc(OC)c2)c1` [Cmpd 327], the inhibition of growth at 177.6 µg/mL under setting [1] was found to be 56.7%.

`COc1cccc(CN(Cc2cccc(O)c2)/C(=N/c2ccc(Cl)c(Cl)c2)Sc2cccc(OC)c2)c1` [Cmpd 328]: testing at 177.6 µg/mL under setting [2] gave an inhibition of growth of 98.9%.

`COc1cccc(CN(Cc2cccc(O)c2)/C(=N/c2cc(Cl)cc(Cl)c2)Sc2cccc(OC)c2)c1` [Cmpd 333] gave an inhibition of growth at 177.6 µg/mL under setting [2] of 67.2%.

Take `COc1cccc(CN(Cc2cccc(O)c2)/C(=N/c2ccc(F)c(Cl)c2)Sc2cccc(OC)c2)c1` [Cmpd 334]: the inhibition of growth at 177.6 µg/mL under setting [1] worked out at 50.6%.

`COc1cccc(CN(Cc2cccc(O)c2)/C(=N/c2ccc(Cl)c([N+](=O)[O-])c2)Sc2cccc(OC)c2)c1` [Cmpd 343] registered an inhibition of growth at 177.6 µg/mL under setting [1] of 52.7%.

As to `COc1cccc(CN(Cc2cccc(O)c2)/C(=N\c2ccc(Cl)c(C(F)(F)F)c2)Sc2cccc(OC)c2)c1` [Cmpd 353], the inhibition of growth at 177.6 µg/mL under setting [2] was found to be 59.1%.

As to `COc1cccc(S/C(=N\Cc2cccc(C)c2)N(CCc2ccc(Cl)cc2)Cc2ccc(O)cc2)c1` [Cmpd 362], the inhibition of growth at 177.6 µg/mL under setting [1] was 50.9%.

`COc1cccc(S/C(=N\c2cccc(F)c2)N(CCc2ccc(Cl)cc2)Cc2ccc(O)cc2)c1` [Cmpd 363] registered an inhibition of growth at 177.6 µg/mL under setting [1] of 50.3%.

On to `COc1cccc(S/C(=N\Cc2ccc(F)cc2)N(CCc2ccc(Cl)cc2)Cc2ccc(O)cc2)c1` [Cmpd 364], for which, under setting [2], the inhibition of growth at 177.6 µg/mL worked out at 66.9%.

`COc1cccc(S/C(=N\c2cccc(C(F)(F)F)c2)N(CCc2ccc(Cl)cc2)Cc2ccc(O)cc2)c1` [Cmpd 366] gave an inhibition of growth at 177.6 µg/mL under setting [1] of 49.1%.

Regarding `COc1cccc(S/C(=N\c2ccc(C(F)(F)F)cc2)N(CCc2ccc(Cl)cc2)Cc2ccc(O)cc2)c1` [Cmpd 367], under setting [2], the inhibition of growth at 177.6 µg/mL was 70.5%.

Under setting [2], `COc1cccc(S/C(=N\c2cc(Cl)cc(Cl)c2)N(CCc2ccc(Cl)cc2)Cc2ccc(O)cc2)c1` [Cmpd 373] returned an inhibition of growth at 177.6 µg/mL of 75%.

Under setting [1], `COc1cccc(S/C(=N\c2ccc(Cl)c([N+](=O)[O-])c2)N(CCc2ccc(Cl)cc2)Cc2ccc(O)cc2)c1` [Cmpd 383] had an inhibition of growth at 177.6 µg/mL of 56.7%.
